Measurements: patent US20070043108A1, “Use of equol for ameliorating or preventing neuropsychiatric and neurodegenerative diseases or disorders” (priority 2002, published 2007)
Where “and” joins values, the source holds several entries; their conditions need not be identical. Identical values can stand only once.

Experiments:
[1] = Bioavailability of R-equol after oral administration to a healthy adult; type: in vivo, human
Experimental: 20 mg of pure R-equol was administered orally to a healthy adult after an overnight fast. Blood samples were collected at timed intervals over the next 24 hours and the plasma concentration of equol was determined by isotope dilution gas chromatography-mass spectrometry with selected ion monitoring. Rapid appearance of equol is observed in the plasma with peak concentrations observed after 8 hours. The terminal elimination half-life of R-equol was approximately 8 hours.

[2] = target: T1, ERα (Rattus norvegicus, UniProt P06211); assay: Competition binding of equol enantiomers with [3H]E2 for in vitro translated ERα
T1 construct: Full length rat ERα expression vector (pcDNA-ERα; RH Price UCSF); made in house; host or cells: TnT-coupled rabbit reticulocyte lysate in vitro translation (Promega)
T1 sequence (P06211 1-600): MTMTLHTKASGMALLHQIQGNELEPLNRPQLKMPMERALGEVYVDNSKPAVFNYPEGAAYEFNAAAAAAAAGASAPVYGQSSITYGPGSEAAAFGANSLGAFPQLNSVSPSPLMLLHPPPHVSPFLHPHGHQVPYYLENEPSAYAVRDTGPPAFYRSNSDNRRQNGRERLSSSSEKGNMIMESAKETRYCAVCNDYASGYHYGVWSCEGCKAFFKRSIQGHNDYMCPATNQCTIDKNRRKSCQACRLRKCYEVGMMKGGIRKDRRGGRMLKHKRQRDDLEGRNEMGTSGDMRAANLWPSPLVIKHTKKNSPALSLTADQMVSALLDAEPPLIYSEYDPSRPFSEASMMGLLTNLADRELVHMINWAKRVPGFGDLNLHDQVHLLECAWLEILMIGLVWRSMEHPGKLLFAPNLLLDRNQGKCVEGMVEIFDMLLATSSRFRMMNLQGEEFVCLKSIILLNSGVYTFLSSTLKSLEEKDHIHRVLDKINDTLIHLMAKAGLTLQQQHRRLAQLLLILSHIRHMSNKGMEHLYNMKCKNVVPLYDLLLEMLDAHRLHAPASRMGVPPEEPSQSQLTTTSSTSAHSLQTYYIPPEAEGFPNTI
Experimental: In vitro binding studies were performed to examine the relative affinities of S— and R-enantiomeric equol with the estrogen receptors ERα and ERβ.
Synthesis of Hormone Receptor Proteins: Full length rat ERα expression vector (pcDNA-ERα; RH Price UCSF) and ERβ expression vector (pcDNA-ERβ; T A Brown, Pfizer, Groton, […].) were used to synthesize hormone receptors in vitro using the TnT-coupled reticulocyte lysate system (Promega, Madison, Wis.) with T7-RNA polymerase, during a 90 min reaction at 30° C. Translation reaction mixtures were stored at −80° C. until further use.
Saturation isotherms: In order to calculate and establish the binding affinity of the S-equol and R-equol enantiomers for ERα and ERβ, 100 μL aliquots of reticulocyte lysate supernatant were incubated at optimal time and temperature; 90 min at room temperature (ERβ) and 18 hrs at 4° C. (ERα), with increasing (0.01-100 nm) concentrations of [3H] […] These times were determined empirically and represent optimal binding of receptor with estrogen. Nonspecific binding was assessed using a 300-fold excess of the ER agonist diethylstilbestrol, in parallel tubes. Following incubation, bound and unbound [3H]E2 were separated by passing the incubation reaction through a 1 mL lipophilic Sephadex LH-20 (Sigma-Aldrich Co., Saint Louis, Mo.) column Columns were constructed by packing a disposable pipette tip (1 mL; Labcraft, Curtin Matheson Scientific, Inc, Houston, Tex.) with TEGMD (10 mm Tris-Cl, 1.5 mm EDTA, 10% glycerol, 25 mm molybdate, and 1 mm dithiothreitol, pH 7.4)-saturated Sephadex according to previously published protocols (Wanda et al., 1986; O'Keefe and Handa, 1990). For chromatography, the columns were re-equilibrated with TEGMD (100 μL), and the incubation reactions were added individually to each column and allowed to incubate on the column for an additional 30 min. Following this incubation, 600 μL of TEGMD were added to each column, flow-through was collected, 4 mL scintillation fluid was added, and samples were counted (5 min each) in an 2900 TR Packard scintillation counter (Packard Bioscience, Meriden, Conn.).
Competition binding studies were used to assess the estrogenic properties of equol's S-equol and R-equol enantiomers. Based on the ability of S and R to compete with [3H]

[3] = test system: intact males; assay: Example 2: tissue weights from intact males given sc injections of racemic equol; type: in vivo, rat; conditions: sc once/day for 7 days
[4] = test system: adult Long-Evans male rats; conditions: equol-treated male rats vs control, previously reported in US 2005/0245492; cited from earlier work
[5] = test system: Male Long-Evans rats; assay: Example 13: racemic equol injections in male rats on Phyto-Free diet; type: in vivo, rat
From the text: Prior to initiation of a Phyto-Free diet period Male Long-Evans rats are fed a Phyto-200 diet, as described in previous examples. The rats are placed on a diet containing the Phyto-Free diet at approximately 52 days of age and randomly assigned to three groups. Baseline body weights after 14 days and 21 days on the Phyto-Free diet for all rats are similar, shown in FIGS. 43 and 44, respectively. Beginning at 73 days of age, rats receive daily subcutaneous 0.1 cc injections of vehicle (peanut oil), 1 milligram of a racemic mixture of equol in vehicle (0.83 mg/kg body weight/day), or 5 milligrams of a racemic mixture of equol in vehicle (4.2 mg/kg body weight/day) once every three days.

[6] = test system: Long-Evans rats, male offspring; assay: Example 19: elevated plus maze of adult male offspring after pre- and early postnatal treatment; type: in vivo, rat; conditions: offspring tested at about 90 days
Experimental: Pregnant Long-Evans rats were treated via daily subcutaneous injections from gestational day 14 through 20 and during lactation from postnatal day 2 through 25 with: 1) control-DMSO vehicle or, 2) genistein@ 3 mg/day or 3) equol@ 3 mg/day according to the treatment groups. All animals were fed a phytoestrogen-low diet throughout these studies (10 ppm isoflavones). There were no significant differences in maternal body weights just before birth among the treatment groups. […] The maternal and male offspring genistein and equol levels @ 25 days post birth) paralleled that of the treatments administered.
At approximately 90 days of age the male offspring were tested by treatments (control, genistein and equol) in the EPM that was video-taped for 3 minutes and later recorded for the number of entries into—and the percentage of total time spent—on the open arms, as previously described. […] Equol time intervals were 2-fold greater than genistein values and genistein levels were approximately 9-fold greater than controls.

[7] = humans; cited from earlier work
[8] = Competition and binding studies of equol with other labelled steroids

In the case of `Oc1ccc([C@@H]2COc3cc(O)ccc3C2)cc1` [R-equol], the bioavailability ([1]; 20 mg orally) is reported as “extremely bioavailable”, the “time of peak plasma concentrations” value ([1]; 20 mg orally after overnight fast, healthy adult) is reported as 8 h and the “stability of the enantiomer in vivo (racemization, biotransformation)” value ([1]; equol in plasma by ESI-MS after 20 mg orally) is reported as “does not undergo any racemization or further biotransformation in the intestine”. For the same compound, the half-life ([1]; human, plasma, po, 20 mg orally, healthy adult, read-out: terminal elimination half-life (converted)) was about 8 h, the “relative binding affinity for ERα compared with 17β-estradiol, fold less” value [2] was 210.6 fold and 211 fold and the Kd ([2]; competition with [3H]E2, in vitro translated ER) was 0.0274 ± 0.0038 µM.
With `Oc1ccc(C2COc3cc(O)ccc3C2)cc1` (racemic) [equol, 7-hydroxy-3(4′hydroxyphenyl)-chroman] the “Body (g)” value [3] was 418.0 (±7.52) g, the “Epididymis (g)” value [3] was 1.59 (±0.06) g and the “Pituitary (g)” value [3] was 0.014 (±0.002) g. The “Prostate (g)” value [3] was 0.38 (±0.06) g, the “Testes (g)” value [3] was 3.48 (±0.08) g and the 5α-DHT [4] was “significant reductions”. The prostate weight [4] was “significant reductions”, the “serum testosterone, luteinizing hormone (LH) or 17β-estradiol levels” value [4] was “no alteration” and the “reduction in adipose tissue mass” value ([5]; 101-day-old rats, vs controls) was “approximately 33%”. For the same compound, the testes weight ([5]; 28 days after start of injections) was “no significant alterations”, the “body weights and average body weight gains” value ([5]; at 80 and 88 days of age, 1 or 5 mg racemic equol sc, vs controls) was “not significantly different from controls” and the “average body weight gains” value ([5]; at 95 and 101 days, vs control) was “significantly reduced”. For the same compound, the “entries into the open arms vs controls” value ([6]; 3 mg/day sc to dams) was “significantly greater”, the “time in the open arms vs controls” value ([6]; 3 mg/day sc to dams) was “significantly greater” and the “open arm time intervals, fold greater than genistein values” [6] was 2 fold. The “proportion circulating in the free or unbound form in plasma” value [7] was “Approximately 50%” and the “binding to [3H]E2, [3H]T, [3H]DHEA, [3H]CORT and [3H]progesterone” value [8] was “without any occurrences of binding”.
